Values quoted from earlier work as cited in patent US20100035755A1, “METHOD OF CONTROLLING WEEDS IN A TURF GRASS BY USING SULFONYLUREA COMPOUNDS” (Moghu Research Center Ltd., priority 2008, published 2010).
Where two headings read alike, the source gives them in different places.

Legend:
[1] = system: cool season turf grass; conditions: cited from earlier work
[2] = system: warm season turf grass; conditions: cited from earlier work
[3] = system: Poa annua; conditions: background statement on existing herbicides; cited from earlier work
[4] = background statement, creeping bentgrass, Kentucky bluegrass
[5] = background statement, zoysiagrass, Burmudagrass

Compound	safety to cool season turf grass [1, 4]	safety to warm season turf grass [2, 5]	controlling Poa annua [3]	safety to cool season turf grass ([1]; in vivo)	safety to warm season turf grass ([2]; in vivo)
COc1cc(OC)nc(NC(=O)NS(=O)(=O)c2ncccc2OCC(F)(F)F)n1 [R. 2, Trifloxysulfuron]	no safety	have a safety	–	–	–
COC(=O)c1c(Cl)nn(C)c1S(=O)(=O)NC(=O)Nc1nc(OC)cc(OC)n1 [R. 3, Halosulfuron-methyl]	safe	safe	ineffective	–	–
COc1cc(OC)nc(NC(=O)NS(=O)(=O)Nc2ccccc2C(=O)C2CC2)n1 [R. 4, Cyclosulfamuron]	–	–	ineffective	safe	safe
